In general, pIC50 refers to −log10 of the IC50, conventionally taken in molar units. Low values mean a large IC50, high ones a small IC50.

The values that follow come from publication PMC3069647 (Journal of medicinal chemistry, 2011).

For data set [1], the system named is human Pgp. Put plainly: Inhibition of Pgp-mediated Rhodamine 123 efflux in L5178 MDR1 cells. As to conditions: mouse T lymphoma L5178 MDR1 cells.
Data set [2] deals with T1, human Pgp (Homo sapiens, UniProt P08183). The data set is described as above. As to conditions: mouse T lymphoma L5178 MDR1 cells.
The next data set concerns Pgp. As to conditions: cited from earlier work.
The target in data set [3] is T1, human Pgp.

pIC50: −log10 of the molar value.

T1 sequence (P08183 whole entry): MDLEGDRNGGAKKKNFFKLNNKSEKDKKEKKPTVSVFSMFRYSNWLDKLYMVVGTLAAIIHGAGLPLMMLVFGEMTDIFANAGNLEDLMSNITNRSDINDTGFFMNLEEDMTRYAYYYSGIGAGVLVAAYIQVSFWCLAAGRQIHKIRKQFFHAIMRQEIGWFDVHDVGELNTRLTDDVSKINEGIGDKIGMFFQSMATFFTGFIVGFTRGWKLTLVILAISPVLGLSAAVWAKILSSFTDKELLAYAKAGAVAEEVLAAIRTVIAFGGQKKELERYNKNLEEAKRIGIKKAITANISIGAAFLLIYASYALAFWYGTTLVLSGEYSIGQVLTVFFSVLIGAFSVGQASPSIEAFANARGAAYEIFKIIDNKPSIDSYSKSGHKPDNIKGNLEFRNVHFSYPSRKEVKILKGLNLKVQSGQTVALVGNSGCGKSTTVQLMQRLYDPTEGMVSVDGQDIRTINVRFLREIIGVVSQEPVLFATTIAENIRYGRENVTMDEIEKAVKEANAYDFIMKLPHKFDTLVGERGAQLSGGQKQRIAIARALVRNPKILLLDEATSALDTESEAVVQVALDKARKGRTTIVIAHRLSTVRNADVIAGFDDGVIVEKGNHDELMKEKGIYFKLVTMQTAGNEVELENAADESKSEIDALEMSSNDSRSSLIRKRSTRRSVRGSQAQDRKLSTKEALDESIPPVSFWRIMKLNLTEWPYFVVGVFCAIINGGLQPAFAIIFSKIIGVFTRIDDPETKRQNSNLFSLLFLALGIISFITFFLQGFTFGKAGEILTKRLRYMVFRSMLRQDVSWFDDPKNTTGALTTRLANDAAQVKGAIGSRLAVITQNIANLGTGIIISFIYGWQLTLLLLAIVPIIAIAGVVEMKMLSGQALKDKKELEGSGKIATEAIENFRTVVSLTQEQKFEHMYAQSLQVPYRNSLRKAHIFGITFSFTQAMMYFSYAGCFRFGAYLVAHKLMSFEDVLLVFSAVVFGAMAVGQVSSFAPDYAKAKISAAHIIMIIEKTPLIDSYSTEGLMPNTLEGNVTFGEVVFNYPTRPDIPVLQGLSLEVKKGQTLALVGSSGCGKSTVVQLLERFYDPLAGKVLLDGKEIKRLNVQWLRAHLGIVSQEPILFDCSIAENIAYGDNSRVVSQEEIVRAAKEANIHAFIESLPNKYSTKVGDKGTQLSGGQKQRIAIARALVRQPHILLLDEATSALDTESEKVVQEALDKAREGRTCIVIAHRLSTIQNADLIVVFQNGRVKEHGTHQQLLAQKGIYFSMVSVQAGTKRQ

For the molecule `O=C1CCc2ccc(OCCCCN3CCN(c4cccc(Cl)c4Cl)CC3)cc2N1` [Aripiprazole], the “Ability to inhibit Pgp-mediated cell efflux of R123 (in words)” value in the data set on human Pgp [1] is recorded as “efficacious Pgp inhibitors”.

Regarding `CCN(CC)CCCN(c1ccccc1)C1Cc2ccccc2C1` [Aprindine], at human Pgp [2], the “Ability to inhibit Pgp-mediated cell efflux of R123 (in words)” value was “weak inhibitors”.

For the molecule `CC1(C)S[C@@H]2[C@H](NC(=O)[C@H](C(=O)O)c3ccsc3)C(=O)N2[C@H]1C(=O)O` [Ticarcillin], the “Ability to inhibit Pgp-mediated cell efflux of R123 (in words)” value on human Pgp [2] was “not effective”.

In the case of `C=CCc1ccccc1OCC(O)CNC(C)C` (centres unmarked) [Alprenolol], the “Ability to inhibit Pgp-mediated cell efflux of R123 (in words)” value at human Pgp [2] is “not effective”.

Turning to `CN(C)CCC=C1c2ccccc2CCc2ccccc21` [Amitriptyline], in the data set on Pgp, the Pgp inhibitor classification entry is “inhibitor”.

In turn, `[Na+].[Na+].[Na+].[O]=[V]([O-])([O-])[O-]` [Vi, Sodium orthovanadate] gave a negative logarithm of the IC50 (pIC50) against human Pgp [3] of around 3.15.

Take `CC(C)[C@H]1CC[C@H](C(=O)N[C@H](Cc2ccccc2)C(=O)O)CC1` [Nateglinide]: the “Ability to inhibit Pgp-mediated cell efflux of R123 (in words)” value at human Pgp [2] is given as “not effective”.

`O=C1Cc2cc(CCN3CCN(c4nsc5ccccc45)CC3)c(Cl)cc2N1` [Ziprasidone]: the “Ability to inhibit Pgp-mediated cell efflux of R123 (in words)” value on human Pgp [2] is listed as “weak inhibitors”.
